Where “and” joins values, the source holds several entries; their conditions need not be identical. Identical values can stand only once. Entries after “also recorded” stand apart in the source; their conditions may differ. Like-named read-outs stand apart in the source and are kept apart here.
Key:
[1] = target: T1, hCB2R (Homo sapiens, UniProt P34972); test: Competitive radioligand binding assay, displacement of [3H]WIN55212-2 from homogenates of hCB2R-CHO cells; conditions: for CB2R binding affinity, in words: hCB2R, discussion of Table 1; for Ki: read-out: CB2R Ki
T1 construct: host or cells: CHO cells, stably transfected
T1 sequence (P34972 whole entry): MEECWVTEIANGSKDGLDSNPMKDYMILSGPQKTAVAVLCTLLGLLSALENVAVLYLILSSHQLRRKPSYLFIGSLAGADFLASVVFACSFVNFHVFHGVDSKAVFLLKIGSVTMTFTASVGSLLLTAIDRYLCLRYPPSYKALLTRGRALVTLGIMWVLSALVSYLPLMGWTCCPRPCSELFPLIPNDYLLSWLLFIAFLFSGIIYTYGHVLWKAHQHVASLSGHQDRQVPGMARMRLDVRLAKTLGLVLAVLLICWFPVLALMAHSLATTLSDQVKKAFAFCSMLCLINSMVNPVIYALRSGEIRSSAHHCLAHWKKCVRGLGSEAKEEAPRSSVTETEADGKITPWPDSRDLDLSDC
Method: (§1) The binding affinity of the herein described compounds toward the human CB2R was determined by a competitive radioligand binding assay according to the established in-house protocol using cell homogenates obtained from CHO cells stably transfected with hCB2R (hCB2R-CHO).[53],[73] For compounds binding with high affinity to hCB2R, the affinity toward CB1R was determined as well by radioligand displacement studies performed either with homogenates obtained from the mouse brain or hCB1R-CHO cells.
(§2) The binding affinities toward hCB1R and hCB2R were determined according to a previously published protocol.[22] In brief, membrane preparations obtained from CHO cell lines stably transfected with either human CB1R (hCB1R-CHO; obtained from Euroscreen, Gosselies, Belgium) or human CB2R (hCB2R-CHO; obtained from Paul L. Prather, Department of Pharmacology and Toxicology, College of Medicine, University of Arkansas for Medical Sciences, USA) were incubated with [^3H]SR141716A (1,554 GBq/mmol; PerkinElmer Life and Analytical Sciences, Rodgau, Germany; final concentration ∼2 nM) or [^3H]WIN55212-2 (6,438 GBq/mmol; PerkinElmer Life and Analytical Sciences, Rodgau, Germany; final concentration ∼3 nM) and the respective test compounds at different concentrations (final concentration 10^–5–10^–11 M) diluted from DMSO stock solutions (1% DMSO final concentration) in incubation buffer (50 mM TRIS-HCl, pH 7.4, supplemented with 0.1% bovine serum albumin, 5 mM MgCl2, and 1 mM EDTA) at rt for 90 min.
(§3) The nonspecific binding of the respective radioligand was determined by coincubation with CP55,940 (final concentration 10^–5 M). The normalized values of bound activity (% specific binding) were calculated and plotted vs the logarithm of the concentration of the respective test compound. The IC50 values of the resulting inhibition curves were estimated by nonlinear regression analysis (GraphPad Prism 2.01). To calculate the Ki, the equation of Cheng and Prusoff was used. For homologous competition experiments, Ki = KD.[38]

[2] = target: T2, hCB1R (Homo sapiens, UniProt P21554); test: Radioligand displacement assay, [3H]SR141716A from homogenates of hCB1R-CHO cells; format: binding
T2 construct: host or cells: CHO cells, stably transfected
T2 sequence (P21554 whole entry): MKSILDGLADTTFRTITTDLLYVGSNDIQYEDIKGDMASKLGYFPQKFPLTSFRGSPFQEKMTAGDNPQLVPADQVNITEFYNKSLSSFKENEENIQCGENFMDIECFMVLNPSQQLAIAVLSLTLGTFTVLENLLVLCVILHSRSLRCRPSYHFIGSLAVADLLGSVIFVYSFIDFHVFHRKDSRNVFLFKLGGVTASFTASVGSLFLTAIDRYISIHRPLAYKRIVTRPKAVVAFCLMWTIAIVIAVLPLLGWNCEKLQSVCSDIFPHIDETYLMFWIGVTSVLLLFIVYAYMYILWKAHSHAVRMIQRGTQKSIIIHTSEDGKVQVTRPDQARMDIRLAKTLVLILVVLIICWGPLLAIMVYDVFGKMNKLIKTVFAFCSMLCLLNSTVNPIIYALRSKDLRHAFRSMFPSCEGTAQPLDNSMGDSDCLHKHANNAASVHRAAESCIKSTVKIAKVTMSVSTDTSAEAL
Method: as §1, §2, §3

[3] = target: CB2R; conditions: cited from earlier work
[4] = target: T3, hCB2R(D80N) (Homo sapiens, UniProt P34972, D80N); design: method as in earlier work; conditions: same animal model, previously evaluated; ref 83 ([18F]LU14), 31 ([18F]LU13); cited from earlier work
T3 construct: expressed in transfected cells; host or cells: neurons of the right striatum of male Wistar rats, transduced in vivo with the AAV2/7-CaMKII0.4-intron-hCB2R(D80N) vector
T3 sequence (P34972 whole entry D80N): as the sequence (P34972 whole entry) above, with D80N counted along it

[5] = hCB2R-CHO homogenates, displacement of [3H]WIN55.2212-2
[6] = hCB1R-CHO homogenates, displacement of [3H]SR141716A, read-out: CB1R Ki
[7] = enantiomer obtained by chiral HPLC separation (Scheme 1), hCB2R-CHO, [3H]WIN55.2212-2
[8] = Figure 1, ref 28 (DM102), 29, 30 (RoSMA-18-d6), 31 (LU13), 33 (LUZ5-d8)
[9] = Figure 1, ref 28 (DM102), 29, 30 (RoSMA-18-d6), 31 (LU13), 33 (LUZ5-d8), read-out: KiCB2R

Compound | CB2R binding affinity, in words [1] | Ki [1, 5] [nM] | Ki [2, 6] [nM] | other results
CC1(C)Cc2ccc(C#N)cc2[C@@H]1NC(=O)c1cc2cc(OCCF)ccc2[nH]1 [Compound 19D, (R)-N-(6-Cyano-2,2-dimethyl-2,3-dihydro-1H-inden-1-yl)-5-(2-fluoroethoxy)-1H-indole-2-carboxamide] | slightly decreased the affinity | 29.9 ± 3.39 | > 1000 | 
CC1(C)Cc2ccc(C#N)cc2[C@@H]1NC(=O)c1cc2c(F)cccc2[nH]1 [Compound 19A, (R)-N-(6-Cyano-2,2-dimethyl-2,3-dihydro-1H-inden-1-yl)-4-fluoro-1H-indole-2-carboxamide] |  | 3.41 | > 1000 | 
O=C(NC12CC3CC(CC(C3)C1)C2)c1cc2cc(F)ccc2[nH]1 [Compound 21E, N-(Adamantan-1-yl)-5-fluoro-1H-indole-2-carboxamide] | loss of CB2R binding | > 1000 | > 1000 | 
CC1(C)Cc2ccc(C#N)cc2[C@@H]1NC(=O)c1cc2cc(F)ccc2[nH]1 [Compound (–)-6, (R)-N-(6-Cyano-2,2-dimethyl-2,3-dihydro-1H-inden-1-yl)-5-fluoro-1H-indole-2-carboxamide] | binding affinity in the same range |  |  | selectivity over CB1R (factor) ([1]; CB2R over CB1R): > 300; Ki ([1]; compound obtained by enantioselective synthesis (Scheme 2), hCB2R-CHO, [3H]WIN55.2212-2): 3.53 nM; Ki [1, 7]: 2.1 nM and 2.19 nM; Ki ([2]; compound obtained by enantioselective synthesis (Scheme 2), hCB1R-CHO, [3H]SR141716A, read-out: CB1R Ki): 965 nM; Ki ([2]; enantiomer obtained by chiral HPLC separation (Scheme 1), hCB1R-CHO, [3H]SR141716A, read-out: CB1R Ki): 827 nM; Ki ([3]; reported value, read-out: CB2R Ki): 0.24 nM
CC1(C)Cc2ccc(C#N)cc2C1NC(=O)c1cc2cc(F)ccc2[nH]1 (stereo not drawn) [Compound (+)-6] | inactive; also recorded: no binding |  | > 1000 | Ki [1, 7]: > 1000 nM
CC12CCC(C1)C(C)(C)C2NC(=O)c1cc2cc(F)ccc2[nH]1 (stereo not shown) [Compound 21D] | loss of CB2R binding | > 1000 | > 1000 | 
CC1(C)Cc2ccc(OCCCF)cc2[C@@H]1NC(=O)c1cc2cc(F)ccc2[nH]1 [Compound 21B, (R)-5-Fluoro-N-(6-(3-fluoropropoxy)-2,2-dimethyl-2,3-dihydro-1H-inden-1-yl)-1H-indole-2-carboxamide] | slightly reduced affinity | 78.1 | > 1000 | 
[2H]C([2H])([18F])C([2H])([2H])C([2H])([2H])C([2H])([2H])n1c(=O)c(C(=O)NC23CC4CC(CC(C4)C2)C3)cc2cccnc21 [[^18F]LU13] |  |  |  | TAC peak SUV in target region [4]: 3.6; KiCB1R/KiCB2R [3, 8]: > 1000; Ki [3, 9]: 0.6 nM
CC1(C)Cc2ccc(OCCF)cc2[C@@H]1NC(=O)c1cc2cc(F)ccc2[nH]1 [Compound 21A, (R)-5-Fluoro-N-(6-(2-fluoroethoxy)-2,2-dimethyl-2,3-dihydro-1H-inden-1-yl)-1H-indole-2-carboxamide] | slightly reduced affinity | 50 | > 100 | 
CC1(C)Cc2ccc(C#N)cc2[C@@H]1NC(=O)c1cc2ccc(F)cc2[nH]1 [Compound 19B, (R)-N-(6-Cyano-2,2-dimethyl-2,3-dihydro-1H-inden-1-yl)-6-fluoro-1H-indole-2-carboxamide] |  | 15.9 | > 1000 | 
CC1(C)Cc2ccc(C#N)cc2[C@@H]1NC(=O)c1nc2cc(F)ccc2[nH]1 [Compound 19G, (R)-N-(6-Cyano-2,2-dimethyl-2,3-dihydro-1H-inden-1-yl)-5-fluoro-1H-benzo[d]imidazole-2-carboxamide] | high CB2R affinity | 7.18 | > 100 | 
CC1(C)C(C(=O)c2cn(CCC[18F])c3ccccc23)C1(C)C [[^18F]DM102] |  |  |  | KiCB1R/KiCB2R [3, 8]: 440; Ki [3, 9]: 7.8 nM
CC1(C)Cc2ccc(C#N)cc2C1NC(=O)c1cc2cc(F)ccc2[nH]1 (racemic) [Compound (±)-6, (rac)-N-(6-Cyano-2,2-dimethyl-2,3-dihydro-1H-inden-1-yl)-5-fluoro-1H-indole-2-carboxamide] |  | 3 | 842 | 
Cc1c(C(=O)N[C@H]2c3cc(C#N)ccc3CC2(C)C)[nH]c2ccc(F)cc12 [Compound 19F, (R)-N-(6-Cyano-2,2-dimethyl-2,3-dihydro-1H-inden-1-yl)-5-fluoro-3-methyl-1H-indole-2-carboxamide] | deleterious effect on the binding affinity | 336 | > 100 | 
CC1(C)Cc2ccc(C#N)cc2[C@@H]1NC(=O)c1cc2cc(F)ccc2s1 [Compound 19H, (R)-N-(6-Cyano-2,2-dimethyl-2,3-dihydro-1H-inden-1-yl)-5-fluorobenzo[b]thiophene-2-carboxamide] | high CB2R affinity | 6.98 ± 3.43 | > 100 | 
CC1(C)Cc2ccc(C#N)cc2[C@@H]1NC(=O)c1cc2cc(OCCCF)ccc2[nH]1 [Compound 19E, (R)-N-(6-Cyano-2,2-dimethyl-2,3-dihydro-1H-inden-1-yl)-5-(3-fluoropropoxy)-1H-indole-2-carboxamide] | slightly decreased the affinity | 15.6 ± 3.85 | > 100 | Ki ([2]; supplement, formula strings sheet, read-out: CB1RKi): > 1000 nM
(R)-N-(6-Cyano-2,2-dimethyl-2,3-dihydro-1H-inden-1-yl)-6-fluoro-1H-indole-2-carboxamide [Compound 19C] |  | 6.49 | > 1000 | 
[2H]C([2H])([18F])C([2H])([2H])C([2H])([2H])OC(=O)C(CC)(CC)NC(=O)c1ccc(N2CC(OC)C2)c(OC[C@H]2C[C@@H]2CO)n1 [[^18F]RoSMA-18-d6] |  |  |  | KiCB1R/KiCB2R [3, 8]: > 10000; Ki [3, 9]: 0.8 nM
CC1(C)Cc2ccc(C(N)=O)cc2[C@@H]1NC(=O)c1cc2cc(F)ccc2[nH]1 [Compound 21C, (R)-N-(6-Carbamoyl-2,2-dimethyl-2,3-dihydro-1H-inden-1-yl)-5-fluoro-1H-indole-2-carboxamide] |  | > 1000 | > 1000 | 

Source: paper PMC10614203, “Synthesis, Structure–Activity Relationships, Radiofluorination, and Biological Evaluation of [^18F]RM365, a Novel Radioligand for Imaging the Human Cannabinoid Receptor Type 2 (CB2R) in the Brain with PET” (Journal of Medicinal Chemistry, 2023)
